Results taken from PubChem BioAssay AID1195 (EPA DSSTox, 2008).

System: human maximum recommended daily dose, FDA database
Assay: DSSTox (FDAMDD) FDA Maximum (Recommended) Daily Dose Database
Conditions: active compounds read low
How it was run: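 MRDD values come from clinical trials with daily oral dosing, usually for 3–12 months, for the average adult, in mg/day converted to mg/kg-bw/day assuming 60 kg. Antineoplastic mg/m2 doses are divided by 37. Activity score maps log10(1/MRDD mmol) onto 1–100.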

[1] = TherapeuticCategory: anticholinergic
[2] = TherapeuticCategory: glucocorticoid
[3] = TherapeuticCategory: antibacterial
[4] = TherapeuticCategory: analgesic, anti inflammatory
[5] = TherapeuticCategory: antineoplastic
[6] = TherapeuticCategory: antiulcerative
[7] = TherapeuticCategory: antihistaminic
[8] = TherapeuticCategory: antipsychotic
[9] = TherapeuticCategory: antidiabetic

NC[C@@H]1O[C@H](O[C@H]2[C@@H](O)[C@H](O[C@@H]3[C@@H](O)[C@H](N)C[C@H](N)[C@H]3O[C@H]3O[C@H](CO)[C@@H](O)[C@H](O)[C@H]3N)O[C@@H]2CO)[C@H](N)[C@@H](O)[C@@H]1O was tested, and the maximum recommended daily dose (mmol/kg-bw/day) (TherapeuticCategory: antibacterial, antiamebic) was 0.0569.
For CCN(CC)CCOC(=O)C(c1ccccc1)c1ccccc1, the maximum recommended daily dose (mmol/kg-bw/day) [1] was 0.0241.
Work on CC(C)NCC(O)COc1cccc2ccccc12 (configuration not stated) yielded a maximum recommended daily dose (mmol/kg-bw/day) (TherapeuticCategory: antihypertensive, antianginal, antiarrhythmic) of 0.0413.
Work on CC/C(=C(/CC)c1ccc(O)cc1)c1ccc(O)cc1 yielded a maximum recommended daily dose (mmol/kg-bw/day) (TherapeuticCategory: estrogen) of 0.0373.
Work on CN1Cc2c(N)cccc2C(c2ccccc2)C1 (configuration not stated) yielded a maximum recommended daily dose (mmol/kg-bw/day) (TherapeuticCategory: antidepressant) of 0.014.
CC(CN1c2ccccc2Sc2ccc(S(=O)(=O)N(C)C)cc21)N(C)C (configuration not stated) showed a maximum recommended daily dose (mmol/kg-bw/day) (TherapeuticCategory: antimigraine) of 0.0034.
In the case of C[C@H]1C[C@H]2[C@@H]3CCC4=CC(=O)C=C[C@]4(C)[C@@]3(F)[C@@H](O)C[C@]2(C)[C@@]1(OC(=O)c1ccccc1)C(=O)CO, the maximum recommended daily dose (mmol/kg-bw/day) [2] is reported as 0.000302.
Work on CCn1cc(C(=O)O)c(=O)c2cnc(N3CCNCC3)nc21 yielded a maximum recommended daily dose (mmol/kg-bw/day) [3] of 0.0438.
O=C(O)C(S)C(S)C(=O)O (configuration not stated) was tested, and the maximum recommended daily dose (mmol/kg-bw/day) (TherapeuticCategory: antidote for heavy metal poisoning, radioactive imaging agent) was 0.0549.
CN1C(=O)CN=C(c2ccccc2F)c2cc([N+](=O)[O-])ccc21 showed a maximum recommended daily dose (mmol/kg-bw/day) (TherapeuticCategory: hypnotic) of 0.000106.
In the case of CC(C)NCC1CCc2cc(CO)c([N+](=O)[O-])cc2N1 (configuration not stated), the maximum recommended daily dose (mmol/kg-bw/day) (TherapeuticCategory: anthelmintic) is reported as 0.215.
In the case of O=C(N[C@H](CO)[C@H](O)c1ccc([N+](=O)[O-])cc1)C(Cl)Cl, the maximum recommended daily dose (mmol/kg-bw/day) (TherapeuticCategory: antibacterial, antirickettsial) is reported as 0.309.
Work on Cn1c(=O)c2[nH]cnc2n(C)c1=O yielded a maximum recommended daily dose (mmol/kg-bw/day) (TherapeuticCategory: bronchodilator) of 0.0481.
OCCN1CCN(CCCN2c3ccccc3Sc3ccc(Cl)cc32)CC1 gave a maximum recommended daily dose (mmol/kg-bw/day) (TherapeuticCategory: antipsychotic, dopamine receptor antagonist) of 0.00099.
Work on CC1=C(/C=C/C(C)=C/C=C/C(C)=C/CO)C(C)(C)CCC1 yielded a maximum recommended daily dose (mmol/kg-bw/day) (TherapeuticCategory: antixerophthalmic vitamin) of 0.0032.
Compound CC1(O)CCC(C(C)(C)O)CC1 (configuration not stated) has a maximum recommended daily dose (mmol/kg-bw/day) (TherapeuticCategory: cis form hydrate as expectorant) of 0.116.
CC1=CC(=O)c2ccccc2C1=O showed a maximum recommended daily dose (mmol/kg-bw/day) (TherapeuticCategory: prothrombogenic vitamin) of 0.000193.
CCOC(=O)c1ccc(N)cc1 gave a maximum recommended daily dose (mmol/kg-bw/day) (TherapeuticCategory: topical anesthetic) of 0.00726.
C[C@]12CC[C@@H]3c4ccc(O)cc4CC[C@H]3[C@@H]1CC[C@@H]2OC(=O)CCC1CCCC1 showed a maximum recommended daily dose (mmol/kg-bw/day) (TherapeuticCategory: estrogen) of 0.00126.
For O=C1CN=C(c2ccccc2)c2cc(Cl)ccc2N1CC1CC1, the maximum recommended daily dose (mmol/kg-bw/day) (TherapeuticCategory: anxiolytic) was 0.00308.
N[C@@H](Cc1ccc(O)c(O)c1)C(=O)O showed a maximum recommended daily dose (mmol/kg-bw/day) (TherapeuticCategory: antiparkinsonian) of 0.674.
CCN(CC)C(=O)c1ccc(O)c(OC)c1 showed a maximum recommended daily dose (mmol/kg-bw/day) (TherapeuticCategory: central and respiratory stimulant) of 0.0187.
O=C1NCC2(CCN(CCc3ccccc3)CC2)O1 showed a maximum recommended daily dose (mmol/kg-bw/day) (TherapeuticCategory: bronchodilator, alpha adrenergic blocker) of 0.0307.
For CC(C(=O)O)c1cccc(Oc2ccccc2)c1 (configuration not stated), the maximum recommended daily dose (mmol/kg-bw/day) [4] was 0.206.
NC(=O)NNc1ccccc1 was tested, and the maximum recommended daily dose (mmol/kg-bw/day) (TherapeuticCategory: antipyretic) was 0.165.
Compound CC1C2Cc3ccc(O)cc3C1(C)CCN2CC1CC1 (configuration not stated) has a maximum recommended daily dose (mmol/kg-bw/day) (TherapeuticCategory: narcotic antagonist) of 0.000246.
Compound CN1CC[C@]23c4c5ccc(O)c4O[C@H]2C(=O)CC[C@@]3(O)[C@H]1C5 has a maximum recommended daily dose (mmol/kg-bw/day) (TherapeuticCategory: narcotic analgesic) of 0.000498.
N=c1ccn2c(n1)O[C@H]1[C@H](O)[C@@H](CO)O[C@H]12 gave a maximum recommended daily dose (mmol/kg-bw/day) [5] of 0.0888.
O=C(O)CCC(=O)O showed a maximum recommended daily dose (mmol/kg-bw/day) [6] of 0.847.
For Nc1ccc(C(=O)O)c(O)c1, the maximum recommended daily dose (mmol/kg-bw/day) [3] was 1.31.
CN(C)CCN(Cc1cccs1)c1ccccn1 gave a maximum recommended daily dose (mmol/kg-bw/day) [7] of 0.0255.
With O=C1CSC2(CCN(CCCN3c4ccccc4Sc4ccc(Cl)cc43)CC2)N1 the maximum recommended daily dose (mmol/kg-bw/day) [8] was 0.0155.
Compound Cc1cc(CC(=O)O)n(C)c1C(=O)c1ccc(Cl)cc1 has a maximum recommended daily dose (mmol/kg-bw/day) [4] of 0.0343.
Compound COC1CC(=C(c2cccs2)c2cccs2)C[N+](C)(C)C1 (configuration not stated) has a maximum recommended daily dose (mmol/kg-bw/day) [1] of 0.00375.
For C=CCC1(CC=C)C(=O)NC(=O)NC1=O, the maximum recommended daily dose (mmol/kg-bw/day) (TherapeuticCategory: sedative, hypnotic) was 0.016.
With CN(C)CCOC(C)(c1ccccc1)c1ccccn1 (configuration not stated) the maximum recommended daily dose (mmol/kg-bw/day) (TherapeuticCategory: antihistaminic, hypnotic) was 0.00154.
With C[C@]12C=CC(=O)C=C1C(Cl)=C[C@@H]1[C@@H]2[C@@H](O)C[C@@]2(C)[C@H]1CC[C@]2(O)C(=O)CO the maximum recommended daily dose (mmol/kg-bw/day) [2] was 0.000529.
C[C@H]1[C@H](NC(=O)/C(=N\OC(C)(C)C(=O)O)c2csc(N)n2)C(=O)N1S(=O)(=O)O was tested, and the maximum recommended daily dose (mmol/kg-bw/day) [3] was 0.305.
For CC[C@]1(O)CC[C@H]2[C@@H]3CCC4=CC(=O)CC[C@@H]4[C@H]3CC[C@@]21C, the maximum recommended daily dose (mmol/kg-bw/day) (TherapeuticCategory: androgen) was 0.00165.
CC[N+](CC)(CC)CCOc1cccc(OCC[N+](CC)(CC)CC)c1OCC[N+](CC)(CC)CC gave a maximum recommended daily dose (mmol/kg-bw/day) (TherapeuticCategory: skeletal muscle relaxant) of 0.00224.
In the case of OC[C@@H](O)[C@@H](O)[C@H](O)[C@@H](O)CO, the maximum recommended daily dose (mmol/kg-bw/day) (TherapeuticCategory: cathartic) is reported as 4.57.
Work on Nc1nc2ncc(CNc3ccc(C(=O)N[C@@H](CCC(=O)O)C(=O)O)cc3)nc2c(=O)[nH]1 yielded a maximum recommended daily dose (mmol/kg-bw/day) (TherapeuticCategory: hematopoetic) of 3.01e-05.
Work on C1CCN2C[C@@H]3C[C@@H](CN4CCCC[C@@H]34)[C@H]2C1 yielded a maximum recommended daily dose (mmol/kg-bw/day) (TherapeuticCategory: oxytocic) of 0.0427.
In the case of Nc1ncn([C@@H]2O[C@H](CO)[C@@H](O)[C@H]2O)c(=O)n1, the maximum recommended daily dose (mmol/kg-bw/day) [5] is reported as 0.0831.
Work on C[C@H]1C[C@H]2[C@@H]3CCC4=CC(=O)C=C[C@]4(C)[C@@]3(F)[C@@H](O)C[C@]2(C)[C@@]1(O)C(=O)CO yielded a maximum recommended daily dose (mmol/kg-bw/day) [2] of 0.000382.
For O=C1CN(/N=C/c2ccc([N+](=O)[O-])o2)C(=O)N1, the maximum recommended daily dose (mmol/kg-bw/day) [3] was 0.028.
Compound CCOC(=O)C1=C(COCCN)NC(C)=C(C(=O)OC)C1c1ccccc1Cl (configuration not stated) has a maximum recommended daily dose (mmol/kg-bw/day) (TherapeuticCategory: antianginal, antihypertensive) of 0.000408.
Compound CN1CCC2=C(C1)C(c1ccccc1)c1ccccc12 (configuration not stated) has a maximum recommended daily dose (mmol/kg-bw/day) [7] of 0.00957.
In the case of C[C@]12CC[C@H]3[C@@H](CCC4=CC(=O)CC[C@@H]43)[C@@H]1CC[C@@H]2O, the maximum recommended daily dose (mmol/kg-bw/day) (TherapeuticCategory: anabolic) is reported as 0.0121.
Compound O=c1[nH]cnc2[nH]ncc12 has a maximum recommended daily dose (mmol/kg-bw/day) (TherapeuticCategory: antiurolithic) of 0.0977.
In the case of O=C(O)[C@H](O)[C@@H](O)C(=O)O, the maximum recommended daily dose (mmol/kg-bw/day) (TherapeuticCategory: none) is reported as 0.2.
NC(N)=NCCCC(N)C(=O)O (configuration not stated) showed a maximum recommended daily dose (mmol/kg-bw/day) (TherapeuticCategory: ammonia detoxicant, diagnostic aid) of 2.87.
CC1(C)O[C@@H]2[C@@H](CO[C@@]3(COS(N)(=O)=O)OC(C)(C)O[C@@H]23)O1 gave a maximum recommended daily dose (mmol/kg-bw/day) (TherapeuticCategory: antiepileptic) of 0.0197.
For CC(=O)N(O)CCCCCNC(=O)CCC(=O)N(O)CCCCCNC(=O)CCC(=O)N(O)CCCCCN, the maximum recommended daily dose (mmol/kg-bw/day) (TherapeuticCategory: parenteral chelating agent) was 0.178.
Compound CNCCc1ccc(OC(=O)C(C)C)c(OC(=O)C(C)C)c1 has a maximum recommended daily dose (mmol/kg-bw/day) (TherapeuticCategory: cardiotonic) of 0.0325.
Work on COCC1=C(C(=O)OC(C)OC(=O)OC(C)C)N2C(=O)[C@@H](NC(=O)/C(=N\OC)c3csc(N)n3)[C@H]2SC1 (some centres not stated) yielded a maximum recommended daily dose (mmol/kg-bw/day) [3] of 0.0179.
With COc1ccnc(CS(=O)c2nc3ccc(OC(F)F)cc3[nH]2)c1OC (configuration not stated) the maximum recommended daily dose (mmol/kg-bw/day) [6] was 0.00174.
NCCC(O)(P(=O)(O)O)P(=O)(O)O was tested, and the maximum recommended daily dose (mmol/kg-bw/day) (TherapeuticCategory: antipagetic) was 0.00638.
CCOc1ccc2nc(S(N)(=O)=O)sc2c1 was tested, and the maximum recommended daily dose (mmol/kg-bw/day) (TherapeuticCategory: carbonic anhydrase inhibitor, diuretic) was 0.0322.
With Cc1cn([C@H]2C[C@H](O)[C@@H](CO)O2)c(=O)[nH]c1=O the maximum recommended daily dose (mmol/kg-bw/day) (TherapeuticCategory: none) was 0.413.
For CC[C@H]1OC(=O)[C@H](C)[C@@H](O[C@H]2C[C@@](C)(OC)[C@@H](O)[C@H](C)O2)C(C)[C@@H](O[C@@H]2O[C@H](C)C[C@H](N(C)C)[C@H]2O)[C@](C)(OC)C[C@@H](C)C(=O)[C@H](C)[C@@H](O)[C@]1(C)O (some centres not stated), the maximum recommended daily dose (mmol/kg-bw/day) [3] was 0.0111.
For Nc1ccn([C@H]2CS[C@@H](CO)O2)c(=O)n1, the maximum recommended daily dose (mmol/kg-bw/day) (TherapeuticCategory: antiviral) was 0.0218.
Compound Cc1ccc(S(=O)(=O)NC(=O)NC2CCCCC2)cc1N has a maximum recommended daily dose (mmol/kg-bw/day) [9] of 0.0107.
For CC(=O)OCC(CCn1cnc2cnc(N)nc21)COC(C)=O, the maximum recommended daily dose (mmol/kg-bw/day) (TherapeuticCategory: antiviral) was 0.0778.
In the case of CC1CC(OC(=O)C(O)c2ccccc2)CC(C)(C)C1 (configuration not stated), the maximum recommended daily dose (mmol/kg-bw/day) (TherapeuticCategory: vasodilator) is reported as 0.0966.
Work on Cc1cc2c(s1)Nc1ccccc1N=C2N1CCN(C)CC1 yielded a maximum recommended daily dose (mmol/kg-bw/day) [8] of 0.0008.
Work on CC(=O)c1ccc(S(=O)(=O)NC(=O)NC2CCCCC2)cc1 yielded a maximum recommended daily dose (mmol/kg-bw/day) [9] of 0.0771.
